According to US20070061899A1, “Transgenic mammal with constitutive, tissue-specific cytokine expression and use as a cancer model” (THE TRUSTEES OF COLUMBIA UNIVERSITY IN THE CITY OF NEW YORK, priority 2005, published 2007):

B1: IL-1β: proinflammatory pleiotropic cytokine, infused or injected into mice (protein, UniProt P10749 118-269, looked up)
Interleukin-1 beta: VPIRQLHYRLRDEQQKSLVLSDPYELKALHLNGQNINQQVIFSMSFVQGEPSNDKIPVALGLKGKNLYLSCVMKDGTPTLQLESVDPKQYPKKKMEKRFVFNKIEVKSKVEFESAEFPNWYISTSQAEHKPVFLGNNSGQDIIDFTMESVSS

Key:
fibrosarcoma = conditions: control mice, systemic treatments; cited from earlier work
B16 melanoma = conditions: murine B16 model, cited from earlier work
[1] = system: tumor development induced by IL-1; conditions: release of 25 ng per day from microencapsulated cells, mice; cited from earlier work
[2] = system: IL-1β mice and C57BL/6J mice infected with Helicobacter felis; experiment: IL-1RA treatment of bone marrow transplanted, Helicobacter felis infected mice; type: in vivo, mouse; conditions: hIL-1RA by osmotic minipump, 100 mg/kg/day for 30 days; eight weeks after H. felis infection
From the text: Bone marrow transplantation, and Helicobacter felis infection and IL-RA treatment. Bone marrow was isolated from the femurs and tibias of 6-8 week old C57BL/6-TgN [ACThEGFP] (GFP) mice. Total bone marrow was washed, triturated using a 20 gauge needle and passed through a 40 sum nylon mesh cell strainer (Becton Dickson) to produce a single cell suspension in PBS. Recipient IL-β mice and C57BL/6J mice were irradiated with 900 rads from a cesium 137-gamma cell irradiator, reconstituted with 3×10^6 donor marrow cells via a single tail vein injection, and used for experiments after 2 weeks of recovery. The overall level of engraftment was 60-80% as assessed by analysis of β-galactosidase or GFP in peripheral leukocytes. Non-transplanted IL-β mice and C57BL/6 mice served as controls for all injury models. Helicobacter felis (strain 49179) was obtained from the […] (Rockville, Md.), grown as recommended and bacteria enumerated as previously described (Houghton 2004). Two weeks after transplantation, mice were infected by oral gavage with 1×10^7 colony forming units every other day for 3 days. […]
Single cell preparation and FACS analysis. […] All single cell suspensions were stained with FITC-labeled anti-CD34, PE-labeled […] as well as Cy5-labeled anti-CD3 and anti-B220 antibodies (Pharmingen) and analyzed using a FACScan™ flow cytometer. […]

[3] = system: C57BL/6J mice and Balb/c mice; experiment: Continuous infusion of IL-1β into mice (preliminary experiment); type: in vivo, mouse; conditions: continuous infusion (13 days)

Row | Molecule | fibrosarcoma growth (fibrosarcoma) | metastases (B16 melanoma) | survival rates (B16 melanoma) | angiogenesis [1] | tumor development [1] | development of gastritis [2] | mobilization of hematopoietic stem cells circulation and stomach tissues [2] | gastric atrophy [3] | liver metastasis (B16 melanoma; intrasplenic injection)
1 | IL-1RA: IL-1 receptor antagonist; binds IL-1 receptor type I without transmitting an activation signal | inhibited | reduced | increased | reduced | inhibited | reduces | reduces |  | 
2 | B1 |  |  |  |  |  |  |  | caused gastric atrophy | increased
